From patent publication US7285567B2, “Halogenated benzamide derivatives” (Romark Laboratories, L.C., priority 2005, dated 2007)
Like-named read-outs stand apart in the source and are kept apart here. Marks after values point to notes of the source that are not given here.

Columns and labels:
[1] = test system: Hepatitis B Virus (HBV); assay: HBV replication in 2.2.15 cell culture, 9-day assay; format: cell-based; conditions: for EC50 / EC90: Hepatitis B virus; for Selectivity Index R.I. / Selectivity Index Virion: calculated with EC90 values (CC50/EC90); for Selectivity Index R.I.: HBV R.I.; for Selectivity Index Virion: virion DNA
Method: (§1) Anti-Hepatitis B Virus (HBV) analyses and an assessment of cytotoxicity were performed in a 9-day assay in the chronically-producing HBV human hepatoblastoma cell line, 2.2.15, as previously described (Korba, B. E. & Gerin, J. L. Use of a standardized cell culture assay to assess activities of nucleosides analogues against hepatitis B virus replication. Antivir. Res. 19, 55-70 (1992)).
(§2) Values presented (±standard deviations [S.D.]) were calculated by linear regression analysis using data combined from all treated cultures. S.D. were calculated using the standard error of regression generated from linear regression analyses (QuattroPro™). EC50, EC90=drug concentration at which a 2-fold, or a 10-fold depression of HBV DNA (relative to the average levels in untreated cultures), respectively, was observed, CC50=drug concentration at which a 2-fold depression of neutral red dye uptake (relative to the average levels in untreated cultures) was observed, The EC90 values were used for the calculation of the Selectivity Indexes [S.I.] since at least a 3-fold depression of HBV levels is typically required to achieve statistical significance in this assay system. HBV R.I.=intracellular HBV DNA replication intermediate.

[2] = Cytotoxicity in 2.2.15 cells (neutral red dye uptake); format: cell-based; conditions: human, 2-fold depression of neutral red dye uptake
Method: as §1, §2

[3] = test system: hepatitis C virus (HCV) replicon; assay: HCV replication in AVA5 replicon cell culture, 3-day assay; format: cell-based; conditions: for Selectivity Index: CC50/EC50
Method: (§3) Anti-Hepatitis C Virus (HCV) analyses and an assessment of cytotoxicity were performed in a 3-day assay in the HCV replicon-containing human hepatoblastoma cell line, AVA5 (Okuse, C., Rinaudo, J. A., Farrar, K., Wells, F. & Korba, B. E. Enhancement of antiviral activity against hepatitis C virus in vitro by interferon combination therapy. Antivir. Res. 65, 23-34 (2005)) as previously described (Blight, K. J., Kolykhalov, A. A. & Rice, C. M. Efficient initiation of HCV RNA replication in cell culture. Science 290, 1972-1974 (2000)).
(§4) Values presented (±standard deviations [S.D.]) were calculated by linear regression analysis using data combined from all treated cultures. S.D. were calculated using the standard error of regression generated from the linear regression analyses (QuattroPro™). EC50, EC90=drug concentration at which a 2-fold, or a 10-fold depression of HCV RNA (relative to the average levels in untreated cultures), respectively, was observed. CC50=drug concentration at which a 2-fold depression of neutral red dye uptake was observed relative to the average levels in untreated cultures. Selectivity index=CC50/EC50.

[4] = test system: AVA5 cells; assay: Cytotoxicity in AVA5 cells (neutral red dye uptake); format: cell-based, human; conditions: neutral red dye uptake, values for interferon
Method: as §3, §4

[5] = as above; format: cell-based, human; conditions: human, 2-fold depression of neutral red dye uptake
Method: as §3, §4

[6] = test system: Rotavirus: Simian Rotavirus SA-11; assay: microbe, parasite or virus in culture; format: cell-based; conditions: Simian rotavirus SA-11, MA104 cell culture
[7] = test system: Influenza A: PR8 strain; assay: microbe, parasite or virus in culture; format: cell-based, Influenza A virus
[8] = test system: Paramyxovirus: Sendai virus; assay: microbe, parasite or virus in culture; format: cell-based; conditions: Sendai virus, 37RC cell culture (Table 1)
[9] = test system: Coronavirus: canine coronavirus strain S-378; assay: microbe, parasite or virus in culture; format: cell-based; conditions: canine coronavirus strain S-378, A72 cell culture
[10] = test system: Rhabdovirus: Vesicular stomatitis virus; assay: microbe, parasite or virus in culture; format: cell-based
[11] = test system: Herpes Simplex type 1: strain F1; assay: microbe, parasite or virus in culture; format: cell-based, Herpes Simplex virus type 1; conditions: Herpes Simplex type 1 strain F1, HEp-2 cell culture
[12] = test system: B. fragilis group; assay: CLSI agar dilution MIC, anaerobic clinical isolates; format: cell-based; conditions: Bacteroides fragilis, B. fragilis gp (40 isolates), 48 h, 35° C.
Method: (§5) Methods. Recent clinical anaerobic isolates (2000 to date) comprised 40 B. fragilis group, 26 Prevotella/Porphyromonas, 28 fusobacteria, 16 anaerobic Gram positive cocci, 14 anaerobic Gram-positive non-sporeforming rods and 18 clostridia. CLSI agar dilution MIC methodology with enriched Brucella blood agar and inocula of 1×10^5 cfu/spot was used. Plates were incubated in an anaerobic glove box at 35° C. for 48 h. Results.

[13] = test system: Prevotella/Porphyromonas; assay: as above; format: cell-based; conditions: Prev/Porphy (26 isolates), 48 h
Method: as §5

[14] = test system: fusobacteria; assay: as above; format: cell-based; conditions: Fusobacteria (28 isolates), 48 h
Method: as §5

[15] = test system: anaerobic Gram positive cocci; assay: as above; format: cell-based; conditions: Gram + cocci (16 isolates), 48 h
[16] = test system: anaerobic Gram-positive non-sporeforming rods; assay: as above; format: cell-based; conditions: Gram + rods (14 isolates), 48 h
[17] = test system: clostridia; assay: organism not typed; format: cell-based; conditions: Clostridia (18 isolates), agar dilution, 48 h
[18] = test system: anaerobic bacteria (all 142 isolates); assay: CLSI agar dilution MIC, all anaerobic clinical isolates; format: cell-based
[19] = All (142 isolates), agar dilution, 48 h

Nc1ccn([C@@H]2CS[C@H](CO)O2)c(=O)n1 [Lamivudine, reference compound]
EC50 ([1]; read-out: Extracellular Virion DNA EC50): 58 ± 6 nM | EC90 ([1]; read-out: Extracellular Virion DNA EC90): 0.164 ± 0.015 µM | EC50 ([1]; read-out: Intracellular HBV R.I. EC50): 172 ± 20 nM | EC90 ([1]; read-out: Intracellular HBV R.I. EC90): 0.66 ± 0.068 µM | Selectivity Index R.I. [1]: 3377 | Selectivity Index Virion [1]: 12959 | CC50 at 9 day [2]: 2.23 ± 0.076 mM

∝ - Interferon
EC50 ([3]; AVA5 cells, 2-fold depression of HCV RNA, values for interferon): 2.2 ± 0.2 IU/ml | EC90 ([3]; AVA5 cells, 10-fold depression of HCV RNA, values for interferon): 8.5 ± 0.6 IU/ml | CC50 [4]: >10,000*^§ IU/ml

NC(=O)c1ncn([C@@H]2O[C@H](CO)[C@@H](O)[C@H]2O)n1 [Ribavirin, reference compound]
Selectivity Index ([3]; AVA5 cells): 0.6 | EC50 ([3]; Hepatitis C virus, Ava5): 94 ± 10 µM | EC90 ([3]; Hepatitis C virus, Ava5): > 100 µM | CC50 at 3 day [5]: 61 ± 2.9 µM

Cc1cccc(C(=O)Nc2ncc(Br)s2)c1O [RM-4819, 2-(hydroxy)-3-methyl-N-(5-bromo-2-thiazolyl)benzamide]
EC50 ([6]; Rotavirus A): 300 nM | SI (selectivity index) = CC50/EC50 ([6]; CC50 by MTT): > 500 | SI (selectivity index) = CC50/EC50 ([7]; Influenza A PR8 strain, MDCK cell culture, CC50 by MTT): > 17 | EC50 ([7]; Influenza A virus, PR8, MDCK): 9.6 µM | EC50 ([8]; Respirovirus muris): 1300 nM | SI (selectivity index) = CC50/EC50 ([8]; CC50 by MTT): > 125 | EC50 ([9]; Alphacoronavirus 1, A-72): 4.9 µM | SI (selectivity index) = CC50/EC50 ([9]; CC50 by MTT): > 33 | EC50 ([10]; MA104): 1600 nM | SI (selectivity index) = CC50/EC50 ([10]; MA104 cell culture, CC50 by MTT): > 100 | SI (selectivity index) = CC50/EC50 ([11]; CC50 by MTT): > 250 | EC50 ([11]; Human alphaherpesvirus 1): 600 nM | EC50 ([1]; 2.2.15 cells, 2-fold depression of HBV DNA, read-out: Extracellular Virion DNA EC50): 3500 ± 500 nM | EC90 ([1]; 2.2.15 cells, 10-fold depression of HBV DNA, read-out: Extracellular Virion DNA EC90): 9 ± 0.8 µM | EC50 ([1]; 2.2.15 cells, intracellular HBV DNA replication intermediate, 2-fold depression, read-out: Intracellular HBV R.I. EC50): 7600 ± 900 nM | EC90 ([1]; 2.2.15 cells, intracellular HBV DNA replication intermediate, 10-fold depression, read-out: Intracellular HBV R.I. EC90): 22 ± 2.6 µM | Selectivity Index R.I. [1]: >46 | Selectivity Index Virion [1]: >111 | CC50 at 9 day [2]: > 1 mM | Selectivity Index ([3]; AVA5 cells): 18 | EC50 ([3]; Hepatitis C virus, AVA5 cells, 2-fold depression of HCV RNA, read-out: EC50): 8.9 ± 0.7 µM | EC90 ([3]; Hepatitis C virus, AVA5 cells, 10-fold depression of HCV RNA, read-out: EC90): 79 ± 8.2 µM | CC50 at 3 day [5]: 164 ± 18 µM | MIC50 [12]: > 32 µg/mL | MIC90 [12]: > 32 µg/mL | MIC50 [13]: > 32 µg/mL | MIC90 [13]: > 32 µg/mL | MIC50 [14]: > 32 µg/mL | MIC90 [14]: > 32 µg/mL | MIC50 [15]: > 32 µg/mL | MIC90 [15]: > 32 µg/mL | MIC50 [16]: > 32 µg/mL | MIC90 [16]: > 32 µg/mL | MIC50 ([17]; read-out: MIC50): > 32 µg/mL | MIC90 ([17]; read-out: MIC90): > 32 µg/mL | MIC50 [18, 19]: > 32 µg/mL | MIC90 [18, 19]: > 32 µg/mL | Activity against anaerobic bacteria groups (summary in words) ([18]; summary of MIC results): without significant activity
